Measured values published in patent publication US12655096B2, “Crystalline polymorphs of Rigosertib sodium” (ASSIA CHEMICAL INDUSTRIES LTD., priority 2018, dated 2026).

Legend:
[1] = Hygroscopicity (water absorption on exposure to relative humidity); format: physicochemical
Description: As used herein the term non-hygroscopic in relation to crystalline Rigosertib Sodium refers to less than 1.0% (w/w) absorption of water, by the crystalline Rigosertib Sodium as determined, for example, by TGA when exposed to 60% RH for 7 days at RT, or preferably 80% RH for 7 days at RT.

[2] = Solid state stability on storage; format: physicochemical
[3] = as described in U.S. Pat. No. 8,476,320; cited from earlier work

COc1cc(OC)c(/C=C/S(=O)(=O)Cc2ccc(OC)c(NCC(=O)O)c2)c(OC)c1 [Rigosertib Sodium Form A, Rigosertib Sodium]
hygroscopicity ([1]; non-hygroscopic defined as less than 1.0% (w/w) absorption of water): non-hygroscopic
hygroscopicity at relative humidity ([1]; up to about 80% relative humidity, about 7 days, 25° C.): substantially non-hygroscopic
stability of the solid state form [2]: stable

COc1cc(OC)c(/C=C/S(=O)(=O)Cc2ccc(OC)c(NCC(=O)O)c2)c(OC)c1 [Amorphous Rigosertib Sodium, Rigosertib Sodium]
hygroscopicity (water absorption) [3]: readily absorbs water after complete drying

COc1cc(OC)c(/C=C/S(=O)(=O)Cc2ccc(OC)c(NCC(=O)O)c2)c(OC)c1 [Rigosertib Sodium Form E, Rigosertib Sodium]
time for which the form is stable ([2]; at RT): at least 4 M
